Experimental data from patent publication US8883782B2, “Spiro-tetracyclic ring compounds as beta-secretase modulators and methods of use” (Amgen Inc., priority 2010, dated 2014).
Where two headings read alike, the source gives them in different places.

How the values were obtained:
[1] = molecular target: Beta Secretase enzyme (BACE) (Homo sapiens, UniProt P56817); experiment: In vitro enzymatic BACE FRET (fluorescence resonance energy transfer) assay; format: biochemical
Outline: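 A peptide bearing a fluorophore and quencher across the cleavage site serves as substrate at 50 nM. Reactions proceed one hour in acidic acetate buffer (0.05 M, pH 4.2) containing 10% DMSO final and 100 uM genapol, then are terminated with Tris and read fluorimetrically.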

[2] = test system: Aβ40 in conditioned medium of cells stably expressing Amyloid Precursor Protein (APP); experiment: In vitro BACE cell-based assay (Aβ40 in conditioned medium, sandwich ELISA); settings: Homo sapiens
Outline: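 Conditioned medium from stably APP-expressing cells treated with compound dose series is assayed for Aβ40 by sandwich ELISA with time-resolved fluorescence detection. IC50 is calculated from percent inhibition of Aβ40 against compound concentration.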

[3] = average IC50, enzyme assay, read-out: BACE 1 FRET assay
[4] = HEK293, average IC50, read-out: HEK cell assay

Sequence of Beta Secretase enzyme (BACE) (P56817 46-501, species assumed): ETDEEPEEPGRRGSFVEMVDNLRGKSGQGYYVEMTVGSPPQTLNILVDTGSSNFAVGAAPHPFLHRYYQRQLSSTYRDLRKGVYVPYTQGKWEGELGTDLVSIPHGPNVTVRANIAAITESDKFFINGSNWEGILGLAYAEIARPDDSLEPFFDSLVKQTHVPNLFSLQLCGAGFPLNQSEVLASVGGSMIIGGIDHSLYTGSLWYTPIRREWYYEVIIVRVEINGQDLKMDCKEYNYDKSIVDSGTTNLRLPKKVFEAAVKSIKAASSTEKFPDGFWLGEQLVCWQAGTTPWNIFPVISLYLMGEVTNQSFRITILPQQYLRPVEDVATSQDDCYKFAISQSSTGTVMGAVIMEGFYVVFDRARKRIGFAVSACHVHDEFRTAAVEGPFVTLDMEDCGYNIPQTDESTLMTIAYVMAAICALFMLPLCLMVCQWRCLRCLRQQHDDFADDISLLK

`CC1(C#Cc2cnc3c(c2)[C@]2(COC(N)=N2)c2cc(-c4ccc(F)c(F)c4)ccc2O3)COC1` [Example 188, (5S)-7-(3,4-difluorophenyl)-3-((3-methyl-3-oxetanyl)ethynyl)spiro[chromeno[2,3-b]pyridine-5,4′-[1,3]oxazol]-2′-amine] was tested, and the IC50 [1, 3] was 0.0045 µM and the IC50 [2, 4] was 0.0866 µM.

With `NC1=N[C@@]2(CO1)c1cc(-c3cccnc3F)ccc1Oc1c(F)cc(N3CCC4(CC3)COC4)cc12` [Example 189, (4S)-4′-fluoro-7′-(2-fluoro-3-pyridinyl)-2′-(2-oxa-7-azaspiro[3.5]non-7-yl)spiro[1,3-oxazole-4,9′-xanthen]-2-amine] the IC50 [1, 3] was 0.0008 µM and the IC50 [2, 4] was 0.0078 µM.

`N#Cc1cncc(-c2ccc3c(c2)[C@@]2(COC(N)=N2)c2cc(C4=CCOCC4)ccc2O3)c1` [Example 190, 5-((4R)-2-amino-7′-(3,6-dihydro-2H-pyran-4-yl)spiro[1,3-oxazole-4,9′-xanthen]-2′-yl)-3-pyridinecarbonitrile] was tested, and the IC50 [1, 3] was 0.0103 µM and the IC50 [2, 4] was 0.0231 µM.

Work on `Cc1cnc(F)c(-c2ccc3c(c2)[C@@]2(COC(N)=N2)c2cc(C4=CCOCC4)ccc2O3)c1` [Example 191, (4R)-2′-(3,6-dihydro-2H-pyran-4-yl)-7′-(2-fluoro-5-methyl-3-pyridinyl)spiro[1,3-oxazole-4,9′-xanthen]-2-amine] yielded an IC50 [1, 3] of 0.0056 µM and an IC50 [2, 4] of 0.0356 µM.

In the case of `NC1=N[C@]2(CO1)c1cc(C3=CCOCC3)ccc1Oc1ccc(-c3cnccn3)cc12` [Example 192, (4R)-2′-(3,6-dihydro-2H-pyran-4-yl)-7′-(2-pyrazinyl)spiro[1,3-oxazole-4,9′-xanthen]-2-amine], the IC50 [1, 3] is reported as 0.0131 µM and the IC50 [2, 4] is reported as 0.035 µM.

Work on `NC1=N[C@]2(CO1)c1cc(C3=CCOCC3)ccc1Oc1ccc(-c3cncc(F)c3)cc12` [Example 193, (4R)-2′-(3,6-dihydro-2H-pyran-4-yl)-7′-(5-fluoro-3-pyridinyl)spiro[1,3-oxazole-4,9′-xanthen]-2-amine] yielded an IC50 [1, 3] of 0.0075 µM and an IC50 [2, 4] of 0.018 µM.

Work on `COc1cncc(-c2ccc3c(c2)[C@@]2(COC(N)=N2)c2cc(C4=CCOCC4)ccc2O3)c1` [Example 194, (4R)-2′-(3,6-dihydro-2H-pyran-4-yl)-7′-(5-methoxy-3-pyridinyl)spiro[1,3-oxazole-4,9′-xanthen]-2-amine] yielded an IC50 [1, 3] of 0.008 µM and an IC50 [2, 4] of 0.0274 µM.

Compound `N#Cc1cccc(-c2ccc3c(c2)[C@@]2(COC(N)=N2)c2cc(C4=CCOCC4)ccc2O3)c1` [Example 195, 3-((4R)-2-amino-7′-(3,6-dihydro-2H-pyran-4-yl)spiro[1,3-oxazole-4,9′-xanthen]-2′-yl)benzonitrile] has an IC50 [1, 3] of 0.0094 µM and an IC50 [2, 4] of 0.0631 µM.

Compound `COc1cccc(Nc2ccc3c(c2)[C@@]2(COC(N)=N2)c2cc(C4=CCOCC4)cc(F)c2O3)c1` [Example 197, (4S)-7′-(3,6-dihydro-2H-pyran-4-yl)-5′-fluoro-N~2~′-(3-methoxyphenyl)spiro[1,3-oxazole-4,9′-xanthene]-2,2′-diamine] has an IC50 [1, 3] of 0.0368 µM and an IC50 [2, 4] of 0.679 µM.

`COc1cccc(Nc2ccc3c(c2)[C@@]2(COC(N)=N2)c2cc(N4CCOCC4)cc(F)c2O3)c1` [Example 198, (4S)-5′-fluoro-N~2~′-(3-methoxyphenyl)-7′-(4-morpholinyl)spiro[1,3-oxazole-4,9′-xanthene]-2,2′-diamine] showed an IC50 [1, 3] of 0.0779 µM and an IC50 [2, 4] of 0.572 µM.

Compound `CC(C)(O)C#Cc1cc(F)c2c(c1)[C@]1(COC(N)=N1)c1cc(-c3cccnc3F)ccc1O2` [Example 199, 4-((4S)-2-amino-4′-fluoro-7′-(2-fluoro-3-pyridinyl)spiro[1,3-oxazole-4,9′-xanthen]-2′-yl)-2-methyl-3-butyn-2-ol] has an IC50 [1, 3] of 0.0008 µM and an IC50 [2, 4] of 0.0051 µM.

`Cc1cc(-c2cc(F)c3c(c2)[C@]2(COC(N)=N2)c2cc(-c4cccnc4F)ccc2O3)cc(=O)o1` [Example 200, 4-((4S)-2-amino-4′-fluoro-7′-(2-fluoro-3-pyridinyl)spiro[1,3-oxazole-4,9′-xanthen]-2′-yl)-6-methyl-2H-pyran-2-one] was tested, and the IC50 [1, 3] was 0.0006 µM and the IC50 [2, 4] was 0.0085 µM.

`NC1=N[C@@]2(CO1)c1cc(-c3cccnc3F)ccc1Oc1c(F)cc(-c3cccnn3)cc12` [Example 201, (4S)-4′-fluoro-7′-(2-fluoro-3-pyridinyl)-2′-(3-pyridazinyl)spiro[1,3-oxazole-4,9′-xanthen]-2-amine] was tested, and the IC50 [1, 3] was 0.0018 µM and the IC50 [2, 4] was 0.0076 µM.

`NC1=N[C@@]2(CO1)c1cc(-c3ccc(F)nc3)ccc1Oc1c(F)cc(N3CCOCC3)cc12` [Example 202, (4S)-4′-fluoro-7′-(6-fluoro-3-pyridinyl)-2′-(4-morpholinyl)spiro[1,3-oxazole-4,9′-xanthen]-2-amine] was tested, and the IC50 [1, 3] was 0.0049 µM and the IC50 [2, 4] was 0.0118 µM.

With `NC1=N[C@@]2(CO1)c1cc(-c3cccnc3F)ccc1Oc1c(F)cc(-c3ccncc3)cc12` [Example 203, (4S)-4′-fluoro-7′-(2-fluoro-3-pyridinyl)-2′-(4-pyridinyl)spiro[1,3-oxazole-4,9′-xanthen]-2-amine] the IC50 [1, 3] was 0.0011 µM and the IC50 [2, 4] was 0.0077 µM.

For `CC(C)(C#N)COc1cc(F)c2c(c1)[C@]1(COC(N)=N1)c1cc(-c3cncc(Cl)c3)ccc1O2` [Example 204, 3-(((4S)-2-amino-7′-(5-chloro-3-pyridinyl)-4′-fluorospiro[1,3-oxazole-4,9′-xanthen]-2′-yl)oxy)-2,2-dimethylpropanenitrile], the IC50 [1, 3] was 0.0005 µM and the IC50 [2, 4] was 0.0045 µM.

With `NC1=N[C@@]2(CO1)c1cc(-c3cccnc3F)ccc1Oc1c(F)cc(-c3cnccn3)cc12` [Example 205, (4S)-4′-fluoro-7′-(2-fluoro-3-pyridinyl)-2′-(2-pyrazinyl)spiro[1,3-oxazole-4,9′-xanthen]-2-amine] the IC50 [1, 3] was 0.0016 µM and the IC50 [2, 4] was 0.0101 µM.

Compound `CC1(COc2cc(F)c3c(c2)[C@]2(COC(N)=N2)c2cc(-c4cncc(Cl)c4)ccc2O3)COC1` [Example 206, (4S)-7′-(5-chloro-3-pyridinyl)-4′-fluoro-2′-((3-methyl-3-oxetanyl)methoxy)spiro[1,3-oxazole-4,9′-xanthen]-2-amine] has an IC50 [1, 3] of 0.0007 µM and an IC50 [2, 4] of 0.0024 µM.

`COCCN(C)c1cc(F)c2c(c1)[C@]1(COC(N)=N1)c1cc(-c3cccnc3F)ccc1O2` [Example 207, (4S)-4′-fluoro-7′-(2-fluoro-3-pyridinyl)-N~2~′-(2-methoxyethyl)-N~2~′-methylspiro[1,3-oxazole-4,9′-xanthene]-2,2′-diamine] gave an IC50 [1, 3] of 0.0075 µM and an IC50 [2, 4] of 0.0314 µM.

In the case of `NC1=N[C@@]2(CO1)c1cc(-c3cncc(Cl)c3)ccc1Oc1c(F)cc(N3CCOCC3)cc12` [Example 208, (4S)-7′-(5-chloro-3-pyridinyl)-4′-fluoro-2′-(4-morpholinyl)spiro[1,3-oxazole-4,9′-xanthen]-2-amine], the IC50 [1, 3] is reported as 0.0008 µM and the IC50 [2, 4] is reported as 0.0038 µM.

`NC1=N[C@@]2(CO1)c1cc(-c3cncc(N4CCOCC4)c3)ccc1Oc1c(F)cc(N3CCOCC3)cc12` [Example 209, (4S)-4′-fluoro-2′-(4-morpholinyl)-7′-(5-(4-morpholinyl)-3-pyridinyl)spiro[1,3-oxazole-4,9′-xanthen]-2-amine] was tested, and the IC50 [1, 3] was 0.249 µM and the IC50 [2, 4] was 0.209 µM.

Work on `NC1=N[C@@]2(CO1)c1cc(-c3cncc(Cl)c3)ccc1Oc1c(F)cc(C3=CCOCC3)cc12` [Example 210, (4S)-7′-(5-chloro-3-pyridinyl)-2′-(3,6-dihydro-2H-pyran-4-yl)-4′-fluorospiro[1,3-oxazole-4,9′-xanthen]-2-amine] yielded an IC50 ([1]; BACE 1 FRET assay (uM)) of 0.0003 µM and an IC50 ([2]; HEK293, read-out: HEK cell assay (uM), average IC50, HEK cell assay) of 0.003 µM.

In the case of `NC1=N[C@@]2(CO1)c1cc(-c3cncc(Cl)c3)ccc1Oc1c(F)cc(OCC3CCOCC3)cc12` [Example 211, (4S)-7′-(5-chloro-3-pyridinyl)-4′-fluoro-2′-(tetrahydro-2H-pyran-4-ylmethoxy)spiro[1,3-oxazole-4,9′-xanthen]-2-amine], the IC50 [1, 3] is reported as 0.0006 µM and the IC50 [2, 4] is reported as 0.0082 µM.

`NC1=N[C@@]2(CO1)c1cc(-c3cccnc3F)ccc1Oc1c(F)cc(-c3ccncn3)cc12` [Example 212, (4S)-4′-fluoro-7′-(2-fluoro-3-pyridinyl)-2′-(4-pyrimidinyl)spiro[1,3-oxazole-4,9′-xanthen]-2-amine] gave an IC50 [1, 3] of 0.0014 µM and an IC50 [2, 4] of 0.0113 µM.

`COc1ncc(-c2cc(F)c3c(c2)[C@]2(COC(N)=N2)c2cc(-c4cccnc4F)ccc2O3)cn1` [Example 213, (4S)-4′-fluoro-7′-(2-fluoro-3-pyridinyl)-2′-(2-methoxy-5-pyrimidinyl)spiro[1,3-oxazole-4,9′-xanthen]-2-amine] gave an IC50 [1, 3] of 0.0027 µM and an IC50 [2, 4] of 0.0216 µM.

`NC1=N[C@@]2(CO1)c1cc(-c3cccnc3F)ccc1Oc1c(F)cc(-c3cncnc3)cc12` [Example 214, (4S)-4′-fluoro-7′-(2-fluoro-3-pyridinyl)-2′-(5-pyrimidinyl)spiro[1,3-oxazole-4,9′-xanthen]-2-amine] showed an IC50 [1, 3] of 0.0028 µM and an IC50 [2, 4] of 0.0187 µM.

For `COc1cc(F)c2c(c1)[C@@]1(CSC(N)=N1)c1cc(-c3cnccn3)ccc1O2` [Example 222, (4R)-4′-fluoro-2′-methoxy-7′-(2-pyrazinyl)spiro[1,3-thiazole-4,9′-xanthen]-2-amine], the IC50 [1, 3] was 0.0414 µM and the IC50 [2, 4] was 1.08 µM.

`Cc1ccc(-c2cc3c(cn2)Oc2ccc(-c4cncc(Cl)c4)cc2[C@@]32COC(N)=N2)cn1` [Example 227, (5S)-7-(5-chloro-3-pyridinyl)-3-(6-methyl-3-pyridinyl)spiro[chromeno[2,3-c]pyridine-5,4′-[1,3]oxazol]-2′-amine] gave an IC50 [1, 3] of 0.0014 µM and an IC50 [2, 4] of 0.0071 µM.

With `Cc1cc(-c2ccc3c(c2)[C@@]2(COC(N)=N2)c2cc(C4=CCOCC4)ncc2O3)cnc1F` [Example 228, (5S)-3-(3,6-dihydro-2H-pyran-4-yl)-7-(6-fluoro-5-methyl-3-pyridinyl)spiro[chromeno[2,3-c]pyridine-5,4′-[1,3]oxazol]-2′-amine] the IC50 [1, 3] was 0.0025 µM and the IC50 [2, 4] was 0.014 µM.
